Structures are written as SMILES.

In one data set the test system is Plasmodium falciparum. Nature of the data set: Antiplasmodial activity against CQ-resistant Plasmodium falciparum Dd2. Type of data set: functional, organism-based.
Conditions: not given
Regarding `Clc1ccc2c(NCCCN3CCN(CC(c4ccccc4)c4ccccc4)CC3)ccnc2c1`, the Activity stood at 1 nM.

Regarding `Clc1ccc2c(NCCCN3CCN(C(c4ccccc4)c4ccccc4)CC3)ccnc2c1`, the Activity stood at 1 nM.

For `Clc1ccc2c(NCCN3CCN(C(c4ccccc4)c4ccccc4)CC3)ccnc2c1`, the Activity is on record as 1 nM.

As to `Clc1ccc2c(NCCCN3CCN(C4C5CC6CC(C5)CC4C6)CC3)ccnc2c1` (stereo not drawn), the Activity was found to be 1 nM.

Consider `CCN(CC)CCCC(C)Nc1ccnc2cc(Cl)ccc12` (stereo not drawn) [CHLOROQUINE], for which the Activity turned out to be 102 nM.

`Clc1ccc2c(NCCCCN3CCN(C(c4ccccc4)c4ccccc4)CC3)ccnc2c1` yielded an Activity of 1 nM.

The data set is the same for the next values; noted with them: Plasmodium falciparum, Dd2.
As to `O=C(/C=C/c1ccccc1)N[C@@H](CCCCCC(=O)NO)C(=O)Nc1cccc2cccnc12`, the half-inhibitory concentration (IC50) came to 33 nM.

In turn, `CN(C)c1ccc(C(=O)N[C@@H](CCCCCC(=O)NO)C(=O)Nc2cccc3cccnc23)cc1` returned a 50% inhibitory concentration (IC50) of 33 nM.

System in another data set: not listed separately
The experiment in a line: Inhibition of beta-hematin formation. Type of data set: physicochemical.
Conditions: not given
As to `O=C(/C=C/c1cccc(F)c1)c1cccc(Nc2ccnc3cc(Cl)ccc23)c1`, the “inhibition (INH)” value is 94%.

With `O=C(/C=C/c1ccccc1Cl)c1cccc(Nc2ccnc3cc(Cl)ccc23)c1`, the “inhibition (INH)” value was found to be 94%.

In the case of `O=C(/C=C/c1ccccc1)c1cccc(Nc2ccnc3cc(Cl)ccc23)c1`, the “inhibition (INH)” value stood at 94%.

In the case of `O=C(/C=C/c1ccc(Cl)cc1)c1cccc(Nc2ccnc3cc(Cl)ccc23)c1`, the “inhibition (INH)” value is recorded as 94%.

Consider `CCN(CC)CCCC(C)Nc1ccnc2cc(Cl)ccc12` (stereo not drawn) [CHLOROQUINE], for which the “inhibition (INH)” value amounted to 94%.

`CN(C)c1ccc(/C=C/C(=O)c2cccc(Nc3ccnc4cc(Cl)ccc34)c2)cc1`: the “inhibition (INH)” value is given as 94%.

For the next data set, the system named is Plasmodium berghei. Nature of the data set: Antimalarial activity against Plasmodium berghei infected in human HuH7 cells assessed as inhibition of liver cell infection. The conditions noted are these: Huh-7, Liver. The format is functional, organism-based.
As for `COc1cc(NC(C)CCCNCC2CCC3(CC2)OOC2(OO3)C3CC4CC(C3)CC2C4)c2ncccc2c1` (stereo not drawn), the IC50 was found to be 330 nM.

Take `COc1cc(NC(C)CCCNC(=O)C2CCC3(CC2)OOC2(OO3)C3CC4CC(C3)CC2C4)c2ncccc2c1` (stereo not drawn): the IC50 worked out at 330 nM.

On to `COc1cc(NC(C)CCCNC(=O)CC2CCC3(CC2)OOC2(OO3)C3CC4CC(C3)CC2C4)c2ncccc2c1` (stereo not drawn), for which the IC50 amounted to 330 nM.

`COc1cc(NC(C)CCCN)c2ncccc2c1` (stereo not drawn) [PRIMAQUINE]: the 50% inhibitory concentration (IC50) turned out to be 7500 nM.

The subject of the next data set is Plasmodium falciparum. Nature of the data set: Antiplasmodial activity against CQ-resistant Plasmodium falciparum 7G8. The format is functional.
Conditions: not given
The compound `Clc1ccc2c(NCCCN3CCN(CC(c4ccccc4)c4ccccc4)CC3)ccnc2c1` registered an Activity of 2 nM.

Compound `Clc1ccc2c(NCCCN3CCN(C(c4ccccc4)c4ccccc4)CC3)ccnc2c1` displayed an Activity of 2 nM.

In turn, `Clc1ccc2c(NCCN3CCN(C(c4ccccc4)c4ccccc4)CC3)ccnc2c1` registered an Activity of 2 nM.

Compound `Clc1ccc2c(NCCCN3CCN(C4C5CC6CC(C5)CC4C6)CC3)ccnc2c1` (stereo not drawn) came in with an Activity of 2 nM.

On to `Clc1ccc2c(NCCCCN3CCN(C(c4ccccc4)c4ccccc4)CC3)ccnc2c1`, for which the Activity is 2 nM.

The test system of a further data set is Plasmodium falciparum. Nature of the data set: Antiplasmodial activity against CQ-resistant Plasmodium falciparum FcB1. Type of data set: functional.
Conditions: not given
`C[C@@H]1CC[C@H]2[C@@H](C)C(=O)O[C@@H]3O[C@@]4(C)CC[C@@H]1[C@]32OO4` [ARTEMISININ]: the Activity is reported as 10 nM.

With `CCN(CC)CCCC(C)Nc1ccnc2cc(Cl)ccc12` (stereo not drawn) [CHLOROQUINE], the Activity worked out at 145 nM.

The next data set deals with Plasmodium falciparum. Nature of the data set: Antiplasmodial activity against CQ-sensitive Plasmodium falciparum D10. The format is functional, organism-based.
Conditions: not given
In the case of `C[C@H]1[C@@H](OCc2ccc(C(=O)N(CCNc3ccnc4cc(Cl)ccc34)CC(=O)NC(C)(C)C)cc2)O[C@@H]2O[C@@]3(C)CC[C@H]4[C@H](C)CC[C@@H]1[C@@]24OO3`, half-maximal inhibition (IC50) was put at 26 nM.

On to `C[C@H]1[C@@H](OCc2cccc(C(=O)N(CCCCNc3ccnc4cc(Cl)ccc34)CC(=O)NC3CCCCC3)c2)O[C@@H]2O[C@@]3(C)CC[C@H]4[C@H](C)CC[C@@H]1[C@@]24OO3`, for which the half-maximal inhibitory concentration (IC50) was found to be 26 nM.

As to `C[C@H]1[C@@H](OCc2ccc(C(=O)N(CCNc3ccnc4cc(Cl)ccc34)CC(=O)NC3CCCCC3)cc2)O[C@@H]2O[C@@]3(C)CC[C@H]4[C@H](C)CC[C@@H]1[C@@]24OO3`, the IC50 was 26 nM.

A further data set has as its system Plasmodium falciparum. Nature of the data set: Antiplasmodial activity against CQ-resistant Plasmodium falciparum FcM29. Type of data set: functional.
Conditions: not given
Consider `C[C@@H]1CC[C@H]2[C@@H](C)C(=O)O[C@@H]3O[C@@]4(C)CC[C@@H]1[C@]32OO4` [ARTEMISININ], for which the Activity is 18 nM.

Compound `CCN(CC)CCCC(C)Nc1ccnc2cc(Cl)ccc12` (stereo not drawn) [CHLOROQUINE] came in with an Activity of 735 nM.

The test system of a further data set is Plasmodium falciparum. Nature of the data set: Antiplasmodial activity against CQ-resistant Plasmodium falciparum W2 assessed as inhibition of parasite growth. Type of data set: functional, organism-based.
Conditions: not given
In the case of `COc1cc(NC(C)CCCNCC2CCC3(CC2)OOC2(OO3)C3CC4CC(C3)CC2C4)c2ncccc2c1` (stereo not drawn), the IC50 was 21 nM.

Consider `COc1cc(NC(C)CCCNC(=O)CC2CCC3(CC2)OOC2(OO3)C3CC4CC(C3)CC2C4)c2ncccc2c1` (stereo not drawn), for which the half-maximal inhibitory concentration (IC50) was determined as 21 nM.

As to `O=C(N[C@H](c1ccccc1)[C@H](O)C(=O)NCc1cn(-c2ccccc2Nc2ccnc3cc(Cl)ccc23)nn1)c1ccccc1`, the IC50 stood at 280 nM.

In the case of `Clc1ccc2c(Nc3ccc4c(c3)NCN(Cc3ccccc3)C4)ccnc2c1`, the half-inhibitory concentration (IC50) is 130 nM.

The subject of a further data set is Plasmodium falciparum. The experiment in a line: Antiplasmodial activity against CQ-sensitive Plasmodium falciparum D6. Type of data set: functional.
Conditions: not given
Compound `Clc1ccc2c(NCCCN3CCN(CC(c4ccccc4)c4ccccc4)CC3)ccnc2c1` showed an Activity of 0.5 nM.

Take `Clc1ccc2c(NCCCN3CCN(C(c4ccccc4)c4ccccc4)CC3)ccnc2c1`: the Activity amounted to 0.5 nM.

As for `Clc1ccc2c(NCCN3CCN(C(c4ccccc4)c4ccccc4)CC3)ccnc2c1`, the Activity came out at 0.5 nM.

As for `Clc1ccc2c(NCCCN3CCN(C4C5CC6CC(C5)CC4C6)CC3)ccnc2c1` (stereo not drawn), the Activity stood at 0.5 nM.

Compound `CCN(CC)CCCC(C)Nc1ccnc2cc(Cl)ccc12` (stereo not drawn) [CHLOROQUINE] registered an Activity of 7 nM.

On to `Clc1ccc2c(NCCCCN3CCN(C(c4ccccc4)c4ccccc4)CC3)ccnc2c1`, for which the Activity turned out to be 0.5 nM.

Another data set relates to Plasmodium falciparum. Nature of the data set: Antiplasmodial activity against CQ-resistant Plasmodium falciparum FCR3. Type of data set: functional, organism-based.
Conditions: not given
Compound `O=[N+]([O-])c1ccccc1S(=O)(=O)N1CCN(c2ccnc3cc(Cl)ccc23)CC1` came in with a half-maximal inhibitory concentration (IC50) of 1200 nM.

Turning to `CCCS(=O)(=O)N1CCN(c2ccnc3cc(Cl)ccc23)CC1`, the IC50 is 1200 nM.

Compound `O=C(CS(=O)(=O)N1CCN(c2ccnc3cc(Cl)ccc23)CC1)Nc1ccccc1` came in with an IC50 of 1200 nM.

Another data set concerns Plasmodium falciparum. The experiment in a line: Antiplasmodial activity against CQ-resistant Plasmodium falciparum K1.
Conditions: not given
The format is functional, organism-based.
`C[C@H]1[C@@H](OCc2ccc(C(=O)N(CCNc3ccnc4cc(Cl)ccc34)CC(=O)NC(C)(C)C)cc2)O[C@@H]2O[C@@]3(C)CC[C@H]4[C@H](C)CC[C@@H]1[C@@]24OO3` registered a half-maximal inhibitory concentration (IC50) of 19 nM.

Compound `C[C@H]1[C@@H](OCc2cccc(C(=O)N(CCCCNc3ccnc4cc(Cl)ccc34)CC(=O)NC3CCCCC3)c2)O[C@@H]2O[C@@]3(C)CC[C@H]4[C@H](C)CC[C@@H]1[C@@]24OO3` showed a half-maximal inhibitory concentration (IC50) of 19 nM.

Turning to `O=C(N[C@H](c1ccccc1)[C@H](O)C(=O)NCc1cn(-c2ccccc2Nc2ccnc3cc(Cl)ccc23)nn1)c1ccccc1`, the 50% inhibitory concentration (IC50) is 390 nM.

`C[C@H]1[C@@H](OCc2ccc(C(=O)N(CCNc3ccnc4cc(Cl)ccc34)CC(=O)NC3CCCCC3)cc2)O[C@@H]2O[C@@]3(C)CC[C@H]4[C@H](C)CC[C@@H]1[C@@]24OO3`: 19 nM corresponded to half-maximal inhibition (IC50).

Turning to `Clc1ccc2c(Nc3ccc4c(c3)NCN(Cc3ccccc3)C4)ccnc2c1`, the half-maximal inhibitory concentration (IC50) was found to be 220 nM.

The subject of the next data set is Plasmodium falciparum. The experiment in a line: Antiplasmodial activity against CQ-sensitive Plasmodium falciparum 3D7. Type of data set: functional, organism-based. The conditions noted are these: Plasmodium falciparum, 3D7.
Compound `O=C(/C=C/c1ccccc1)N[C@@H](CCCCCC(=O)NO)C(=O)Nc1cccc2cccnc12` yielded an IC50 of 13 nM.

`CN(C)c1ccc(C(=O)N[C@@H](CCCCCC(=O)NO)C(=O)Nc2cccc3cccnc23)cc1` displayed an IC50 of 13 nM.

Another data set concerns Plasmodium berghei. The experiment in a line: Antimalarial activity against Plasmodium berghei infected in mouse assessed as reduction in parasitemia at 44 to 46 mg/kg, po. Type of data set: functional.
Conditions: not given
In the case of `Clc1ccc2c(NCCCN3CCC(NC(c4ccccn4)c4ccccn4)CC3)ccnc2c1` [DM-1157], the “inhibition (INH)” value was greater than 99.9%.

With `Clc1ccc2c(NCCN3CCC(NC(c4ccccn4)c4ccccn4)CC3)ccnc2c1`, the “inhibition (INH)” value is greater than 99.9%.

Another data set has as its system Plasmodium berghei. Nature of the data set: Antimalarial activity against Plasmodium berghei infected in mouse assessed as inhibition of parasite multiplication at 5 mg/kg/day administered for 4 days measured after 7 days.
Conditions: not given
Type of data set: functional.
For `Clc1ccc2c(Sc3ncnc4[nH]cnc34)ccnc2c1`, the inhibition in vivo at 5 mg/kg/day was found to be 70%.

For the origin of these results see ChEMBL document CHEMBL3603813, “Quinoline-based antimalarial hybrid compounds” (Bioorg Med Chem, 2015).
